Tested on: Cynomolgus monkey corneal endothelial cells
Test: Western blot of Na+/K+-ATPase and ZO-1 in monkey corneal endothelial cells (Example 3)
Assay type: cell-based
Details: monkey CEC treated with SB431542 vs fibroblast phenotype control
Description: Next, reaction was allowed for 1 hour at a room temperature with ALEXA FLUOR 488 (INVITROGEN (catalog number: A21206)) and ALEXA FLUOR 594 (INVITROGEN (catalog number: A21203)), diluted with TBS-T by 1,000 fold. After washing with PBS, the sample was encapsulated with VECTASHIELD WITH DAPI (VECTOR LABORATORIES (catalog number: 94010)) onto a slide, followed by observation through confocal microscope (Leica). • Western blot technique: protein extracted by RIPA buffer was electrophoresed with 7.5% polyacrylamide. The separated protein was transferred to a PVDF film (PALL LIFE SCIENCE (catalog number: EH-2222)). […] After washing, bands were detected using an ECL-ADVAVCE Western Blotting Detection Kit (GE healthcare Japan (catalog number: RPN2135V)). […]
P-40 (Nacalai Tesque, catalog number: 23640-94), 0.5% sodium deoxycholate (Nacalai Tesque, catalog number:10712-12), and 0.1% SDS (Nacalai Tesque, catalog number:31607-65)). Thus obtained cell lysate was centrifuged (15,000 rpm, 10 minutes), the supernatant thereof was collected, and the protein was quantitated using a BCA PROTEIN ASSAY KIT (PIERCE, catalog number: 23227). […]

**Q.** NC(=O)c1ccc(-c2nc(-c3ccc4c(c3)OCO4)c(-c3ccccn3)[nH]2)cc1 [SB431542] was tested. Which “expression of Na+/K+-ATPase and ZO-1, protein level (Western blot)” value did it give?
**A.** strongly enhanced
